From EP2769738B1, “Conjugated TLR7 and/or TLR8 and TLR2 polycationic agonists” (Invivogen, priority 2013, dated 2014)

Columns and labels:
Type in all cases: cell-based, mouse
[1] = system: ISG54 promoter activity in B16-ISG54 reporter cells; test: IFN response assay, B16-ISG54 luciferase reporter cells; conditions: Figure 6B, in complexes with pDNA 3:24 (w:w), overnight
Experimental: (§1) The effect of the pDNA:TLR7-TLR2 polyamine molecules complexes on inducing an interferon response was examined. pDNA:TLR7-TLR2 polyamine molecules mixtures (pDNA:TLR7-TLR2 polyamine molecules ratio 3:24, w:w) in serum-free medium or 5% glucose were prepared as described above and added to IFN reporter cells. Luciferase reporter cell lines were used to assay interferon response. A plasmid containing an interferon-inducible luciferase reporter gene was introduced into mouse RAW 264.7 macrophages and mouse B16 melanoma cells, giving rise to the RAW-ISG54 and B16-ISG54 reporter cell lines respectively. Expression of the luciferase reporter gene by the plasmid is under the control of an interferon-inducible promoter (I-ISG54) comprising five interferon-stimulated response elements (ISRE) and the minimal promoter of the human ISG-54K (Interferon Stimulation of a Gene encoding a 54 kDa protein) gene. The ISG-54K gene is induced by interferon regulatory factor 3 (IRF3), which has a key involvement in […] responses (Grandvaux et al. 2002) and the minimal promoter of the human ISG-54K gene contains two ISRE sites and fully inducible by type I interferons (IFN-α and IFN-β) and interferon regulatory factors (IRFs) (Wathelet et al. 1988; Grandvaux et al. 2002).
(§2) The RAW-ISG54 and B16-ISG54 reporter cell lines were seeded onto 96 well microtiter plates at 100,000 cells per well and 75,000 cells per well respectively. […] The induced luciferase expression was assessed in the reporter cell lines using a coelenterazine-base luminescence assay reagent, the Quanti-LucTM (InvivoGen). Secreted luciferase activity was determined by bioluminescence quantification of the cell culture media using a microplate luminometer (FLUOstar OPTIMA from BMG Labtech).

B16-F1 cells = test: Cell transfection with SEAP plasmid, B16-F1; conditions: Figure 5B; in complex with pVitro14 LGFP SEAP plasmid, 48 hours, SEAP reporter gene expression
Experimental: The TLR7-TLR2 molecules were tested for their ability as polyamine molecules to transport plasmid DNA (pDNA) into cells. The pVitro14 LGFP SEAP plasmid (InvivoGen) was complexed to TLR7-TLR2 polyamine molecules and to the control cationic lipid transfection agent, LyoVec™ (InvivoGen). The human HEK293 (ATCC, CRL-1573) and mouse B16-F1 melanoma (ATCC, CRL-6323) cell lines were seeded at a density of 50 000 cells/well and 20 000 cells/well respectively, in the absence or presence of different volumes of the plasmid encoding for the SEAP protein in complex with TLR7-TLR2 polyamine molecules for 48 hours at 37°C and 10% CO2. Transfection efficiency was assessed by measuring SEAP reporter gene expression: 20 µl of supernatant was sampled and mixed with 180 µl of QUANTI-Blue™ Detection (InvivoGen). In the presence of alkaline phosphatase SEAP, the color of QUANTI-Blue™ changes from pink to purple/blue. The intensity of the blue hue reflects the activity of SEAP. The levels of SEAP secretion were determined quantitatively by reading the OD at 620-655 nm using a spectrophotometer, iMark™ Microplate Reader (BIO-RAD).

[2] = system: ISG54 promoter activity in RAW-ISG54 reporter cells; test: IFN response assay, RAW-ISG54 luciferase reporter cells; conditions: Figure 6A, in complexes with pDNA 3:24 (w:w), overnight
Experimental: as §1, §2

SMILES	ability to induce an IFN response (ISG54 promoter activity) in B16-ISG54 reporter cells [1]	ability to transfect B16-F1 cells (B16-F1 cells)	ability to induce an IFN response (ISG54 promoter activity) in RAW-ISG54 reporter cells [2]
CCCCCCCCCCCCCCCC(=O)OCC(CSC[C@H](N)C(=O)N[C@@H](COC(=O)c1ccc(Cn2c(O)nc3c(N)nc(NCCCC)nc32)cc1)C(=O)NCCCNCCCCNCCCN)OC(=O)CCCCCCCCCCCCCCC (stereo partly drawn) [CL514, (6R,9S)-6,23-diamino-9-((4-((6-amino-2-(butylamino)-8-hydroxy-9H-purin-9-yl)methyl)benzoyloxy)methyl)-7,10-dioxo-4-thia-8,11,15,20-tetraazatricosane-1,2-diyl dipalmitate]	induce an IFN response in B16-ISG54 reporter cells	transfect B16-F1 cells	induce an IFN response in RAW-ISG54 reporter cells
CCCCCCCCCCCCCCCC(=O)OCC(CSC[C@H](N)C(=O)N[C@@H](CCC(=O)NCCCNCCCCNCCCN)C(=O)Nc1ccc(Cn2c(O)nc3c(N)nc(NCCCC)nc32)cc1)OC(=O)CCCCCCCCCCCCCCC (stereo partly drawn) [CL527, (6R,9S)-6,25-diamino-9-(4-((6-amino-2-(butylamino)-8-hydroxy-9H-purin-9-yl)methyl)phenylcarbamoyl)-7,12-dioxo-4-thia-8,13,17,22-tetraazapentacosane-1,2-diyl dipalmitate]	induce an IFN response in B16-ISG54 reporter cells	transfect B16-F1 cells	induce an IFN response in RAW-ISG54 reporter cells
CCCCCCCCCCCCCCCC(=O)OCC(CSC[C@H](N)C(=O)NCCCNCCCCNCCCNC(=O)CNC(=O)c1ccc(Cn2c(O)nc3c(N)nc(NCCCC)nc32)cc1)OC(=O)CCCCCCCCCCCCCCC (stereo partly drawn) [CL553, (20R)-20-amino-1-(4-((6-amino-2-(butylamino)-8-hydroxy-9H-purin-9-yl)methyl)phenyl)-1,4,19-trioxo-22-thia-2,5,9,14,18-pentaazapentacosane-24,25-diyl dipalmitate]	induce an IFN response in B16-ISG54 reporter cells	transfect B16-F1 cells	induce an IFN response in RAW-ISG54 reporter cells
